# Laboratory results reported in patent publication US20240158385A1, “NOVEL COMPOUNDS” (Cerevance, Inc., priority 2021, published 2024).
# Biological target: T1, human KCNK13 (Homo sapiens, UniProt Q9HB14)
# T1 construct: expressed in transfected cells
# T1 sequence (Q9HB14 1-408): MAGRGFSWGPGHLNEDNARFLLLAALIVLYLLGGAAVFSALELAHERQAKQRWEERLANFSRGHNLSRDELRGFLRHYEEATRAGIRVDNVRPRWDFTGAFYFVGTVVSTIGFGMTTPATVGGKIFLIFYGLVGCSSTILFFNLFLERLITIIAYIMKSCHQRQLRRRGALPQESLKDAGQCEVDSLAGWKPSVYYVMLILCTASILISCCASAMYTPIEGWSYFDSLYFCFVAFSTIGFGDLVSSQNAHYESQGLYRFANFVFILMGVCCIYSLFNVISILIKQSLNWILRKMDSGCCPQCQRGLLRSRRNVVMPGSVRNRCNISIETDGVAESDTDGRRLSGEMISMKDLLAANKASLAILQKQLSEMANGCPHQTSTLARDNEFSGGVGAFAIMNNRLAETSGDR
# Assay: KCNK13 antagonist activity, thallium (Tl+) flux FLIPR assay
# Assay type: cell-based
# Details: HEK 293 cells stably expressing human KCNK13; Tl+ sensitive dye, FLIPR; compounds 15 minutes prior to thallium sulfate; 10 point half log curves from 10 PM; read-out: hKCNK13 IC50
# Protocol: KCNK13 antagonist activity was determined by measuring changes in intracellular Thallium (Tl^+) concentrations using a Tl^+ sensitive fluorescent dye. The changes in fluorescent signal were monitored by Fluorescent Imaging Plate Reader (FLIPR™) technology available from Molecular Devices, LLC, US. KCNK13 mediated increases in intracellular Tl+concentration were readily detected by addition of a thallium sulfate stimulus. 24 hours prior to the assay, human embryonic kidney 293 cells (HEK 293 cells) stably expressing human KCNK13 were seeded in cell culture medium in PDL coated black, clear-bottom 384-well plates (commercially available from Corning Inc., 356663) and grown overnight at 37° C., 5% CO2. On the day of the assay, cell culture media was removed and cells were loaded with potassium dye (commercially sold by Molecular Devices, LLC, US, R8222) for 1 hour at room temperature in the dark. Test compounds (at 10 point half log concentration response curves from […]) were added to cells for 15 minutes prior to the addition of thallium sulfate to all wells. The IC50 values were determined from ten point concentration response curves. Curves were generated using the average of two wells for each data point.
row,IC50,SMILES
1,< 50 nM,"Cc1nsnc1-c1nc2c(F)cccc2n1Cc1cccnc1 (single isomer, unassigned) [Example 124, 3-[4-fluoro-1-(pyridin-3-ylmethyl)benzimidazol-2-yl]-4-methyl-1,2,5-thiadiazole]"
2,< 50 nM,"Cc1nsnc1-c1nc2cccc(F)c2n1Cc1cccnc1 (single isomer, unassigned) [Example 125, 3-[7-fluoro-1-(pyridin-3-ylmethyl)benzimidazol-2-yl]-4-methyl-1,2,5-thiadiazole]"
3,< 100 nM,"Cc1snnc1-c1nc2cccc(F)c2n1Cc1cccnc1 (single isomer, unassigned) [Example 128, 4-[7-fluoro-1-(pyridin-3-ylmethyl)benzimidazol-2-yl]-5-methyl-1,2,3-thiadiazole]"
4,< 100 nM,"Cc1snnc1-c1nc2c(F)cccc2n1Cc1cccnc1 (single isomer, unassigned) [Example 129, 4-[4-fluoro-1-(pyridin-3-ylmethyl)benzimidazol-2-yl]-5-methyl-1,2,3-thiadiazole]"
5,< 50 nM,"Nc1nonc1-c1nc2cccc(F)c2n1Cc1ccnnc1 (single isomer, unassigned) [Example 132, 4-(7-fluoro-1-(pyridazin-4-ylmethyl)-benzimidazol-2-yl)-1,2,5-oxadiazol-3-amine]"
6,< 100 nM,"Nc1nonc1-c1nc2c(F)cccc2n1Cc1ccnnc1 (single isomer, unassigned) [Example 133, 4-(4-fluoro-1-(pyridazin-4-ylmethyl)-benzimidazol-2-yl)-1,2,5-oxadiazol-3-amine]"
7,< 50 nM,"Nc1nonc1-c1nc2cccc(F)c2n1Cc1ccncn1 (single isomer, unassigned) [Example 134, 4-(7-fluoro-1-(pyrimidin-4-ylmethyl)-benzimidazol-2-yl)-1,2,5-oxadiazol-3-amine]"
8,< 200 nM,"Nc1nonc1-c1nc2c(F)cccc2n1Cc1ccncn1 (single isomer, unassigned) [Example 135, 4-(4-fluoro-1-(pyrimidin-4-ylmethyl)-benzimidazol-2-yl)-1,2,5-oxadiazol-3-amine]"
9,< 500 nM,"Cc1nonc1-c1nc2cccc(F)c2n1Cc1ccc(S(C)(=O)=O)nc1 (single isomer, unassigned) [Example 137, 3-(7-fluoro-1-((6-(methylsulfonyl)pyridin-3-yl)methyl)-benzimidazol-2-yl)-4-methyl-1,2,5-oxadiazole]"
10,< 1000 nM,"Cc1nonc1-c1nc2c(F)cccc2n1Cc1ccc(S(C)(=O)=O)nc1 (single isomer, unassigned) [Example 138, 3-(4-fluoro-1-((6-(methylsulfonyl)pyridin-3-yl)methyl)-benzimidazol-2-yl)-4-methyl-1,2,5-oxadiazole]"
11,< 50 nM,"Cc1nonc1-c1nc2cc(F)cc(F)c2n1Cc1cccnn1 (single isomer, unassigned) [Example 146, 3-(5,7-difluoro-1-(pyridazin-3-ylmethyl)-benzimidazol-2-yl)-4-methyl-1,2,5-oxadiazole]"
12,< 200 nM,"Cc1nonc1-c1nc2c(F)cc(F)cc2n1Cc1cccnn1 (single isomer, unassigned) [Example 147, 3-(4,6-difluoro-1-(pyridazin-3-ylmethyl)-benzimidazol-2-yl)-4-methyl-1,2,5-oxadiazole]"
13,< 50 nM,"Nc1nonc1-c1nc2cccc(F)c2n1Cc1ccc(Cl)nn1 (single isomer, unassigned) [Example 148, 4-(1-((6-chloropyridazin-3-yl)methyl)-7-fluoro-benzimidazol-2-yl)-1,2,5-oxadiazol-3-amine]"
14,< 100 nM,"Nc1nonc1-c1nc2c(F)cccc2n1Cc1ccc(Cl)nn1 (single isomer, unassigned) [Example 149, 4-(1-((6-chloropyridazin-3-yl)methyl)-4-fluoro-benzimidazol-2-yl)-1,2,5-oxadiazol-3-amine]"
15,< 50 nM,"COc1ccc(Cn2c(-c3nonc3N)nc3cccc(F)c32)nn1 (single isomer, unassigned) [Example 152, 4-(7-fluoro-1-((6-methoxypyridazin-3-yl)methyl)-benzimidazol-2-yl)-1,2,5-oxadiazol-3-amine]"
